We go through 28 compounds from patent publication US20220041641A1, “QUATERNARY AMMONIUM SALTS AS INHIBITORS OF TRIMETHYLAMINE PRODUCTION” (Senda Biosciences, Inc., priority 2018, published 2022).

Assay [1] has as its target CutC from Clostridium sporogenes (Clostridium sporogenes, UniProt A0AAE4Z0A8). The experiment in a line: Cell-based assay for TMA production from a native producer (C. sporogenes). The conditions noted are these: read-out: IC50 Whole cell C. sporogenes; d9-TMA from 1 mM d9-choline, 5 h, 37° C.; run once; value 10 given when no fit or % TMA remaining at 10 μM higher than 15%. The source says: (§1) In each bacterium, CutC was modified into its activated form by a cognate activating enzyme, CutD (protein EDU36696.1 for C. sporogenes; protein WP_004249185.1 for P. mirabilis). […] Trimethylamine may subsequently be converted by human enzymes such as flavin monooxygenase 3 to trimethylamine N-oxide, which might be associated with negative health consequences in humans.
(§2) A compound's ability to inhibit CutC from Proteus mirabilis and C. sporogenes from converting choline into trimethylamine was tested in cells as described. A BHI blood plate was inoculated with a frozen stock of Proteus mirabilis or Clostridium sporogenes under anaerobic conditions. A single colony was isolated from the plate and inoculated into 5 mL BHI supplemented with 1 mM choline under anaerobic conditions. The liquid cultures were grown overnight at 37° C.
(§3) To prepare each sample, 300 μL of the saturated culture was then inoculated into a 30 mL dilution blank under anaerobic conditions. 1 mM (trimethyl-d9)-choline and a sufficient amount of a compound to obtain a final concentration of 10 μM were added to the inoculated dilution blank. […] The mixture was incubated at 37° C. for 5 h. […] After centrifugation, the samples were analyzed by LCMS to determine the amount of d9-TMA produced.

Assay [2] concerns the target CutC from Proteus mirabilis (Proteus mirabilis, UniProt B4EYG1). The experiment in a line: Cell-based assay for TMA production from a native producer (P. mirabilis).
Text: as §1, §2, §3

Another assay concerns CutC/D enzyme. The experiment in a line: Acute mouse model (plasma TMAO on choline diet). The class given is in vivo, male C57BL/6 mice. The method, then:
The following acute mouse model may be used to determine inhibition of the CutC/D enzyme and thus the inhibition of the formation of trimethylamine (TMA) from choline.
On day 1, male C57BL/6 mice were given a chemically defined diet (Tekland Global Rodent Diet 2018) containing 1.0% choline (g/g) for the duration of the experiment. Concurrently on day 1, mice were orally gavaged with 200 μL of compounds of interest (formulated in water). Mice were orally gavaged with the compounds and vehicle control again on day 2 and day 3 at a fixed time. Twenty hours after the last gavage, mice were sacrificed, and plasma was collected and prepared for detection of trimethylamine-N-oxide (TMAO) via liquid chromatography with on-line tandem mass spectrometry (LC-MS/MS). Food consumption and mouse weight were measured each day.
Plasma samples were prepared for LCMS as follows: An aliquot of 20 μL plasma sample was protein precipitated with 200 μL internal standard solution (100 ng/mL Labetalol & 100 ng/mL Tolbutamide & 100 ng/mL Diclofenac in acetonitrile, the mixture was vortex-mixed and centrifuged at 4000 rpm for 15 min, 4° C. An aliquot of 100 μL supernatant was transferred to the sample plate for LCMS injection. 1 μL of sample was injected onto an LC column for TMAO LCMS analysis.
Concentrations of TMAO were determined with a calibration curve ranging 0.05-100 μM for d9-TMAO in control plasma.

Where [3] appears, read: d9-TMA from 1 mM d9-choline, 5 h, 37° C.; value 10 given when no fit or % TMA remaining at 10 μM higher than 15%; read-out: Average IC50 Whole cell P. mirabilis.
Setting [4] is: Table 4b, 10 mg/kg oral gavage days 1-3.
Where [5] appears, read: Table 4b, 10 mg/kg oral gavage days 1-3, plasma 20 h after last gavage.

pIC50: −log10 of the molar value. Several values for one entry are separate records, joined by “and”; a condition that tells them apart may be missing. Equal values may be shown once. Where a name gives a salt, the structure may show the parent alone. Read-outs that look alike come from different tables or passages of the source.

CutC from Clostridium sporogenes, sequence (A0ABD6RTF0 entry or part of it): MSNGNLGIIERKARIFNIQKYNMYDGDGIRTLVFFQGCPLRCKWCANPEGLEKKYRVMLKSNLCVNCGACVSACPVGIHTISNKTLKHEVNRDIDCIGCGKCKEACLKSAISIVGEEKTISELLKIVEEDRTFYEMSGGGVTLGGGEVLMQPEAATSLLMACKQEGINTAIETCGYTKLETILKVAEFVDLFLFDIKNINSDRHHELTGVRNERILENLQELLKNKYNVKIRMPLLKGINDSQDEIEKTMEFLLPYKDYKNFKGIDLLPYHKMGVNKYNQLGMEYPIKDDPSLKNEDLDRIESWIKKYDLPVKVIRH
CutC from Clostridium sporogenes, sequence (A0AAE4Z0A8 entry or part of it): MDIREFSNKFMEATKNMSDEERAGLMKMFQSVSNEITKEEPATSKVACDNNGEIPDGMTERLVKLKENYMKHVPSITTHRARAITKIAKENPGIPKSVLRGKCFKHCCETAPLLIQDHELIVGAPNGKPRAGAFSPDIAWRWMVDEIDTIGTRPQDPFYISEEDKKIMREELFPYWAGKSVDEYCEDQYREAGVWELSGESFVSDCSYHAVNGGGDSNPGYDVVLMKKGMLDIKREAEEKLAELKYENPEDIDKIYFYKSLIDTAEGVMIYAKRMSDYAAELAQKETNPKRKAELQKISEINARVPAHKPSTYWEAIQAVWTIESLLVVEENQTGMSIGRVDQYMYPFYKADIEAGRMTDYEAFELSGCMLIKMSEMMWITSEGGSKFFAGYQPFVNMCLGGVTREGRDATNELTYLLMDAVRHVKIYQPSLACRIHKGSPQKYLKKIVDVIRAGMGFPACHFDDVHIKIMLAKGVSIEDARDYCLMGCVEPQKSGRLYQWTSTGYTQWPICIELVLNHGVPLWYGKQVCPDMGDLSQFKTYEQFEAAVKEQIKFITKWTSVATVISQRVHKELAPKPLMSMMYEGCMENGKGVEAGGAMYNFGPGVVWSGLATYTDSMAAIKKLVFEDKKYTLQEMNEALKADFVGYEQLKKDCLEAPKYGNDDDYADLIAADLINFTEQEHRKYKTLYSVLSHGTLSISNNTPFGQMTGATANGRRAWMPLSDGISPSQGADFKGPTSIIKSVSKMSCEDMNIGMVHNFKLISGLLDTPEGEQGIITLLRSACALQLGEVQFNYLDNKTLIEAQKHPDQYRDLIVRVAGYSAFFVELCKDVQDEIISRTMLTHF
CutC from Proteus mirabilis, sequence (B4EYG1 entry or part of it): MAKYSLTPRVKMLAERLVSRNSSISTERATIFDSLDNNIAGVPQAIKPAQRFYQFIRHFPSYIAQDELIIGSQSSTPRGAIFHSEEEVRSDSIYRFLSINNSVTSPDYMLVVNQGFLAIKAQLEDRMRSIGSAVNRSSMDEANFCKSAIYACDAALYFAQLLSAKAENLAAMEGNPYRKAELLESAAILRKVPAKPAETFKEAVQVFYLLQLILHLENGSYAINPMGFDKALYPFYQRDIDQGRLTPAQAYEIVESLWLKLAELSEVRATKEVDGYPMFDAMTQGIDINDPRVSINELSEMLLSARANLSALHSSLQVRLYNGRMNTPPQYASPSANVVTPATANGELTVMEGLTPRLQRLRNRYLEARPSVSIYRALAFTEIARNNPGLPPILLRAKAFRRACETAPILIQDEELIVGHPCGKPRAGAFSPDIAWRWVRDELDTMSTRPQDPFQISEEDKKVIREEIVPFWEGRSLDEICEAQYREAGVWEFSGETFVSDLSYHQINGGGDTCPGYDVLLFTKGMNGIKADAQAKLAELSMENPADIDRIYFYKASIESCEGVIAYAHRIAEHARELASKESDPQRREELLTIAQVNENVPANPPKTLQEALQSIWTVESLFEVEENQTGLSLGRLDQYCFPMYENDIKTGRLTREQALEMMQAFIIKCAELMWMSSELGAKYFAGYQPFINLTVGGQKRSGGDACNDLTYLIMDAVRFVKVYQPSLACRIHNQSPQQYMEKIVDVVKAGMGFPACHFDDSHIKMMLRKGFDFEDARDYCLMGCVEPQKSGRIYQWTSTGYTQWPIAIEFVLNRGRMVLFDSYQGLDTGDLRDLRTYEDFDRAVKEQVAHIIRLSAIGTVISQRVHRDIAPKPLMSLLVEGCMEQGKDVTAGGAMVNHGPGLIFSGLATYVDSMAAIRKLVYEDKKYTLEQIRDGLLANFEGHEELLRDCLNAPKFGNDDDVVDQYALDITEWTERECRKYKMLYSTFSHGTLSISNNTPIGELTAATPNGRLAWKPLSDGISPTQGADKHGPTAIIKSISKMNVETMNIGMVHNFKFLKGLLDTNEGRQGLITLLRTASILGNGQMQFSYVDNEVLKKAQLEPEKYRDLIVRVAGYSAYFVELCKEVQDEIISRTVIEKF
CutC from Proteus mirabilis, sequence (B4EYG0 entry or part of it, further chain): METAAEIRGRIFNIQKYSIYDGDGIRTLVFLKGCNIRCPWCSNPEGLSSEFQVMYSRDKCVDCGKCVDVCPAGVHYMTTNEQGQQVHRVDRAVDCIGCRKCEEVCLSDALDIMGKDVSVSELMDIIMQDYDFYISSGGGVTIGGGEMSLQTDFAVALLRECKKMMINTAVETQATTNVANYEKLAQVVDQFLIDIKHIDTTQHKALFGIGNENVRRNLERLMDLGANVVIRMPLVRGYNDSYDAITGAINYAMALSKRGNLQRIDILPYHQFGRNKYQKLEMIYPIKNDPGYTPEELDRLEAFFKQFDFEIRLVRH

Usually pIC50 stands for the IC50 on a negative log10 scale, so that one unit is a factor of ten. Take `C[N+](C)(C)CCNC=O` [Compound 128]: the pIC50 in assay [1] and in assay [2] (setting [3]) was no more than 5.00 each time.
`C#CC[N@@+]1(C)CCC[C@@H]1CO` [Compound 129, (1R,2R)-2-(hydroxymethyl)-1-methyl-1-(prop-2-yn-1-yl)pyrrolidin-1-ium Bromide]: the pIC50 in assay [1] and in assay [2] (setting [3]) was no more than 5.00 in each case.
On to `C[N+]1(C)CCCC1CO` (centres unmarked) [Compound 110, 2-(hydroxymethyl)-1,1-dimethylpyrrolidin-1-ium Iodide], for which the pIC50 in assay [1] and in assay [2] (setting [3]) was no more than 5.00 in each case.
With `C#CC[N+](C)(C)CCCCO.O=C([O-])C(F)(F)F` [Compound 141, 4-hydroxy-N,N-dimethyl-N-(prop-2-yn-1-yl)butan-1-aminium Trifluoroacetate], the pIC50 in assay [1] is no more than 5.00; in assay [2] (setting [3]), 5.28. In addition, the “% change from vehicle control + choline diet” value (“% change” below) in the assay on CutC/D enzyme (setting [4]) was −88.23%. Also, the “Mean plasma TMAO” value with CutC/D enzyme (setting [5]) turned out to be 2.92 µM.
Turning to `C#CC[N+]1(C)CCC[C@H]1CO` (stereo partly drawn) [Compound 108, (2S)-2-(hydroxymethyl)-1-methyl-1-(prop-2-yn-1-yl)pyrrolidin-1-ium bromide], the figures for the pIC50 in assay [1] and in assay [2] (setting [3]) were 5.61 and 5.66, respectively.
Taken in the same sequence, the figures for `C#CCn1ccnc1` [Compound Z76, 1-(prop-2-yn-1-yl)-1H-imidazole] were no more than 5.00 and 5.39.
Take `C[N+](C)(C)CCCP(=O)(O)O` [Compound 143, N,N,N-trimethyl-3-phosphonopropan-1-aminium Trifluoroacetatetrifluoroacetatetrifluoroacetatetrifluoroacetatetrifluoroacetate]: the pIC50 in assay [1] was no more than 5.00; in assay [2] (read-out: Average IC50 Whole cell P. mirabilis; d9-TMA from 1 mM d9-choline, 5 h, 37° C.; value 10 given when no fit or % TMA remaining at 10 μM higher than 15%), no more than 5.00.
As for `C#CCC[N+](C)(C)C` [Compound 130], the figures for the pIC50 in assay [1] and in assay [2] (setting [3]) were no more than 5.00 and 5.46, respectively.
For `C#CC[N+](C)(C)CCCCC(=O)O` [Compound A51, 4-carboxy-N,N-dimethyl-N-(prop-2-yn-1-yl)butan-1-aminium Bromide], the pIC50 was 6.03 in assay [1] and 5.96 in assay [2] (setting [3]).
For `C[N+]1(C)CCCC1COCc1ccccc1` (centres unmarked) [Compound 134, 2-[(benzyloxy)methyl]-1,1-dimethylpyrrolidin-1-ium Iodide], the pIC50 in assay [1] and in assay [2] (setting [3]) was no more than 5.00 each time.
Consider `C#CC[N+]1(C)CC[C@H](O)C1` (stereo partly drawn) [Compound 112, (3S)-3-hydroxy-1-methyl-1-(prop-2-yn-1-yl)pyrrolidin-1-ium bromide], for which the pIC50 was 6.55 in assay [1] and 6.26 in assay [2] (setting [3]).
With `C[N+](C)(C)CC#CCO` [Compound 132, 4-hydroxy-N,N,N-trimethylbut-2-yn-1-aminium Chloride], the pIC50 in assay [1] and in assay [2] (setting [3]) was no more than 5.00 throughout.
On to `C[N+]1(C)CC[C@H](O)C1` [Compound 117, (S)-3-hydroxy-1,1-dimethylpyrrolidin-1-ium Iodide], for which the pIC50 in assay [1] and in assay [2] (setting [3]) was no more than 5.00 throughout.
For `C[N+](C)(CCO)c1ccccc1` [Compound 145], the pIC50 in assay [1] was 5.86; in assay [2] (setting [3]), no more than 5.00.
Take `C#CC[N+](C)(C)CC(=O)O[C@H]1O[C@H](COC(C)=O)[C@@H](OC(C)=O)[C@H](OC(C)=O)[C@H]1OC(C)=O.O=C([O-])C(F)(F)F` [Compound 19, N,N-dimethyl-N-(2-oxo-2-(((2R,3R,4S,5R,6R)-3,4,5-triacetoxy-6-(acetoxymethyl)tetrahydro-2H-pyran-2-yl)oxy)ethyl)prop-2-yn-1-aminium trifluoroacetate]: in assay [2] (setting [3]), the pIC50 is 5.76. Also, the “% change” value in the assay on CutC/D enzyme (Table 4a, 333 mg/kg oral gavage days 1-3) is given as −84.29%. The “Mean plasma TMAO” value in the assay with CutC/D enzyme (Table 4a, 333 mg/kg oral gavage days 1-3, plasma 20 h after last gavage) came to 5.40 µM.
As for `C[S+]([O-])C[N+](C)(C)C` (centres unmarked) [Compound 140, (methanesulfinylmethyl)trimethylazanium Chloride], the negative-log IC50 (pIC50) in assay [1] and in assay [2] (setting [3]) was no more than 5.00 in each case.
Regarding `C[N+]1(CF)CC[C@@H](O)C1` (stereo partly drawn) [Compound 115, (3R)-1-(fluoromethyl)-3-hydroxy-1-methylpyrrolidin-1-ium Iodide], the values for the pIC50 in assay [1] and in assay [2] (setting [3]) were 5.01 and 5.68, respectively.
With `C[N+](C)(C)CCCC(=O)O` [Compound 127, 3-carboxy-N,N,N-trimethylpropan-1-aminium Iodide], the pIC50 in assay [1] is no more than 5.00; in assay [2] (setting [3]), 5.30.
Taken in the same sequence, the figures for `C#CC1CC[N+](C)(C)C1` (centres unmarked) [Compound 137, 3-ethynyl-1,1-dimethylpyrrolidin-1-ium Iodide] were no more than 5.00 and no more than 5.00.
As to `C[N+]1(C)CC[C@@H](O)C1` [Compound 116, (R)-3-hydroxy-1,1-dimethylpyrrolidin-1-ium Iodide], the pIC50 in assay [1] and in assay [2] (setting [3]) was no more than 5.00 in each case.
With `C#CC[N+](C)(C)CCCO` [Compound 138, N-(3-hydroxypropyl)-N,N-dimethylprop-2-yn-1-aminium Trifluoroacetate], the results for the negative logarithm of the IC50 (pIC50) in assay [1] and in assay [2] (setting [3]) were 5.27 and 5.98, respectively.
Taken in the same sequence, the figures for `C[N+]1(CF)CC[C@H](O)C1` (stereo partly drawn) [Compound 114, (3S)-1-(fluoromethyl)-3-hydroxy-1-methylpyrrolidin-1-ium Iodide] were 5.79 and 5.68.
In the case of `C#CC[N+]1(C)CC[C@@H](O)C1` (stereo partly drawn) [Compound 113, (3R)-3-hydroxy-1-methyl-1-(prop-2-yn-1-yl)pyrrolidin-1-ium bromide], the pIC50 in assay [1] is 5.90; in assay [2] (setting [3]), 6.15.
On to `C#CC[N+](C)(C)CC(=C)C(=O)O.[Br-]` [Compound B52, 2-carboxy-N,N-dimethyl-N-(prop-2-yn-1-yl)prop-2-en-1-aminium Bromide], for which the pIC50 in assay [1] was 8.00; in assay [2] (setting [3]) it was 7.40 and 7.52. For the same compound, in the assay with CutC/D enzyme (setting [4]), the “% change” value came to 20.76%. In the assay on CutC/D enzyme (setting [5]), the “Mean plasma TMAO” value came out at 30.0 µM.
For `C[N+](C)(CF)CC(O)O` [Compound 146], the pIC50 was 5.82 in assay [1] and no more than 5.00 in assay [2] (setting [3]).
In the same order, the values of `C#CC(C)[N+](C)(C)C` (centres unmarked) [Compound 133] are 6.36 and 6.18.
Turning to `C#CC[N+](C)(C)CC(=C)Cl.[Cl-]` [Compound 185, (2-chloroprop-2-en-1-yl)dimethyl(prop-2-yn-1-yl)azanium Chloride], the pIC50 in assay [2] (setting [3]) was 6.63. In the assay with CutC/D enzyme (Table 4e, 123.7 mg/kg oral gavage days 1-3), the “% change” value is −16%. Also, the “Mean plasma TMAO” value in the assay on CutC/D enzyme (Table 4e, 123.7 mg/kg oral gavage days 1-3, plasma 20 h after last gavage) was 22.2 µM.
Consider `C#CC[N+](C)(C)CCCC(=O)O` [Compound 144, N-(3-carboxypropyl)-N,N-dimethylprop-2-yn-1-aminium Iodide], for which the negative-log IC50 (pIC50) is 6.15 in assay [1] and 6.24 in assay [2] (setting [3]).
